Measured values reported in US10150728B2, “Alkylene derivatives” (Shionogi & Co., Ltd., priority 2013, dated 2018).

biological target: recombinant human ACC2 (Homo sapiens (Human), UniProt O00763); assay: Measurement of inhibitory activity on human ACC2 (MALDI-TOF MS, acetyl CoA to malonyl CoA conversion); format: biochemical; conditions: Table 154
Procedure, shortened: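 His-tagged human ACC2 (residues 27–2458) from baculovirus-infected Sf-9 cells was preincubated 1 h in pH 7.4 HEPES-KOH buffer with MgCl2, 6-10 mM potassium citrate, glutathione and BSA. Substrate solution held 1 mM ATP, 0.8 mM acetyl CoA and 25-50 mM bicarbonate. After 1–3 h at room temperature, malonyl CoA/(malonyl+acetyl CoA) was read by negative-mode MALDI-TOF MS; citrate, bicarbonate and time varied by enzyme lot.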

recombinant human ACC2, sequence (O00763 27-2458): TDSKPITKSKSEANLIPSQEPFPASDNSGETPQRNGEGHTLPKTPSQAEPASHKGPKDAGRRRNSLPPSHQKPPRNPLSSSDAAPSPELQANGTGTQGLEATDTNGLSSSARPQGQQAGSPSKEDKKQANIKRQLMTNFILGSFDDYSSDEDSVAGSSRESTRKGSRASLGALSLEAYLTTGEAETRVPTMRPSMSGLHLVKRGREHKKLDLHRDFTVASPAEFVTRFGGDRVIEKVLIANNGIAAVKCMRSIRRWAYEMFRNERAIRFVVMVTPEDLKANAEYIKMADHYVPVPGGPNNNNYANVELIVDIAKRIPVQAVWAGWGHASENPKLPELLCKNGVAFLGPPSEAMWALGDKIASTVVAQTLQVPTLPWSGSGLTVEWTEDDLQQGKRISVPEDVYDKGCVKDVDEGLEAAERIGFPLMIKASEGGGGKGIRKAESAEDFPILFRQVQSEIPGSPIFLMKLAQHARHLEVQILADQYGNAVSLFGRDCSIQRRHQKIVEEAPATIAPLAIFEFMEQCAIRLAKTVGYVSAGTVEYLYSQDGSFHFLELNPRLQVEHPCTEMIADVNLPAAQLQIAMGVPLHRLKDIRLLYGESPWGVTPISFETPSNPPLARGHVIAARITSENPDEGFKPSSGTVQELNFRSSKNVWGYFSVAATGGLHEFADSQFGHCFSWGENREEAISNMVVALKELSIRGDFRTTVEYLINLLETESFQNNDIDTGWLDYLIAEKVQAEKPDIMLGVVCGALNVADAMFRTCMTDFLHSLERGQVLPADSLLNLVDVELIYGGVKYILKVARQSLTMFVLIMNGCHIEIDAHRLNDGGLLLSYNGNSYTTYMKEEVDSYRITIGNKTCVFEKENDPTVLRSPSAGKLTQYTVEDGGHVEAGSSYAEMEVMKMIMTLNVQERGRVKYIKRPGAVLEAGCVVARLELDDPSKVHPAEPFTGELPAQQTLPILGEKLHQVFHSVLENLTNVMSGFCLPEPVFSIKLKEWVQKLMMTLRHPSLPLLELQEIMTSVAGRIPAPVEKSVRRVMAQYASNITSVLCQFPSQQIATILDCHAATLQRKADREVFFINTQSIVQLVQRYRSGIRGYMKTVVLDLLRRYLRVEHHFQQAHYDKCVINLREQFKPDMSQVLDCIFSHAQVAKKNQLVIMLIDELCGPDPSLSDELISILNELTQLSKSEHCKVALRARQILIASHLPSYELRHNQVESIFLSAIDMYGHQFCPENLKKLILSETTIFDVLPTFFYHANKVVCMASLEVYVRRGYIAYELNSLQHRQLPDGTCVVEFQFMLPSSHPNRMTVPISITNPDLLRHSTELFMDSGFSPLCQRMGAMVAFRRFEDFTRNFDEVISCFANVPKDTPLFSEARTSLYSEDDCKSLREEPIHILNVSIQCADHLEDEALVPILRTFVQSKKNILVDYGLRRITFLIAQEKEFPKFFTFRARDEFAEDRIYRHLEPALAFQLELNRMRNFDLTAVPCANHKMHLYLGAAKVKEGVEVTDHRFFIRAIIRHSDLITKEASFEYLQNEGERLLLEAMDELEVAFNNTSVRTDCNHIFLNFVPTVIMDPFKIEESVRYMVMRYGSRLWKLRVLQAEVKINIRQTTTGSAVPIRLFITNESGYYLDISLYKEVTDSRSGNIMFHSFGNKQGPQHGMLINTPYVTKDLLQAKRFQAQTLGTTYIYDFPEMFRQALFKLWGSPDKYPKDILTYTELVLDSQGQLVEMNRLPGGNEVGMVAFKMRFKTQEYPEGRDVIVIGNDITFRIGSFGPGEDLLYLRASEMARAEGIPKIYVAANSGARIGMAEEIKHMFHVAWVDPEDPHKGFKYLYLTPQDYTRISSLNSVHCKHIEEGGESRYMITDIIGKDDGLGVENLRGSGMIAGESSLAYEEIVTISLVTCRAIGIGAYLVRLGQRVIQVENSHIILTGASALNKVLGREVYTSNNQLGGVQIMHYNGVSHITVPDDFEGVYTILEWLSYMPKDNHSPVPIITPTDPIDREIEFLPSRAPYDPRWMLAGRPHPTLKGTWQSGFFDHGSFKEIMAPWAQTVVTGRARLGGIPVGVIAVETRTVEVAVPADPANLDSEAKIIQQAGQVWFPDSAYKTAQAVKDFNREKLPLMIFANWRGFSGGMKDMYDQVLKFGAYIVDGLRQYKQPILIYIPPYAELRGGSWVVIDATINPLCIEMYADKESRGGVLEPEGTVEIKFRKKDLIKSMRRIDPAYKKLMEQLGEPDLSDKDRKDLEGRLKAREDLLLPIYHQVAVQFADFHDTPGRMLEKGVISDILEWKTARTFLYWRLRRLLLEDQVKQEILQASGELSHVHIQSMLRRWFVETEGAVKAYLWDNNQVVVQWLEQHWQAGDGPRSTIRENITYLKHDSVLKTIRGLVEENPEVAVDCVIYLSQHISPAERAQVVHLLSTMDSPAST

Row | IC50 | SMILES
1 | 1120 nM | CC(=O)N[C@@H](C)CO[C@H]1CC[C@H](Oc2ccc3nc(C(C)C)oc3c2Cl)CC1 [Compound I-064]
2 | 15 nM | CCOc1nc2ccc(OC[C@H]3C[C@H](OC[C@H](C)NC(C)=O)C3)c(F)c2s1 [Compound I-088]
3 | 189 nM | CCOc1nc2ccc(O[C@H]3CC[C@](C)(OC[C@H](C)NC(C)=O)CC3)c(F)c2s1 [Compound I-078]

same assay, conditions: Tables 155-159

Row | SMILES | IC50
4 | CC(=O)N[C@@H](C)CO[C@H]1C[C@H](COc2ccc3nc(Oc4ccc(F)cc4)sc3n2)C1 [Compound I-305] | 22 nM
5 | C[C@@H](CO[C@H]1CC[C@H](Oc2nc3c(F)cc(OCC(F)F)c(F)c3n2C)CC1)NC(=O)c1cn[nH]c1 [Compound I-656] | 39 nM
6 | CC(=O)N[C@@H](C)CO[C@H]1C[C@H](COc2ccc3nc(OC4CCC4)sc3n2)C1 [Compound I-245] | 4 nM
7 | CC(=O)N[C@@H](C)CO[C@H]1C[C@H](COc2ccc3nc(N4CC(F)(F)C4)sc3n2)C1 [Compound I-215] | 21 nM
8 | CNC(=O)N[C@@H](C)CO[C@H]1CC[C@H](Oc2nc3c(F)cc(OCC(F)F)c(F)c3n2C)CC1 [Compound I-701] | 23 nM
9 | CC(=O)N[C@@H](C)CO[C@H]1CC[C@H](Oc2cc3sc(OCC(F)F)nc3cn2)CC1 [Compound I-185] | 44 nM
10 | CCn1ccc2c(OC[C@H]3C[C@H](OC[C@H](C)NC(C)=O)C3)ncnc21 [Compound I-453] | 610 nM
11 | CC(=O)N[C@@H](C)CO[C@H]1C[C@H](COc2nccc(-c3csc(C)n3)c2C)C1 [Compound I-333] | 203 nM
12 | CC(=O)N[C@@H](C)CO[C@H]1CC[C@H](Oc2ccc3nc(OCC(F)(F)F)n(C)c3n2)CC1 [Compound I-498] | 13 nM
13 | CC(=O)N[C@@H](C)CO[C@H]1C[C@H](COc2ncnc(OCc3cc(Cl)ccn3)c2F)C1 [Compound I-460] | 4 nM
14 | CC(=O)N[C@@H](C)CO[C@H]1C[C@](F)(COc2ccc3nc(Oc4ccc(F)cc4)sc3n2)C1 [Compound I-204] | 113 nM
15 | CC(=O)N[C@@H](C)CO[C@H]1CC[C@H](Oc2ccc3nc(OCCC(F)(F)F)n(C)c3n2)CC1 [Compound I-504] | 18 nM
16 | CCOC(=O)c1cc(C(=O)N[C@@H](C)CO[C@H]2CC[C@H](Oc3ncc(-c4ncc(F)cn4)cc3F)CC2)ccn1 [Compound I-539] | 92 nM
17 | CC(=O)N[C@@H](C)CO[C@H]1C[C@H](COc2ncnc(OCc3ccncc3)c2Cl)C1 [Compound I-393] | 155 nM

Next, values leading:

Row | IC50 | SMILES
18 | 168 nM | CC(=O)N[C@@H](C)CO[C@H]1CC[C@H](Oc2nc3ccc(-c4ccccc4)cc3n2C)CC1 [Compound I-582]
19 | 4 nM | CC(=O)N[C@@H](C)CO[C@H]1CC[C@H](Oc2nc3c(F)cc(OC4CC4)cc3n2C)CC1 [Compound I-734]
20 | 17 nM | CCOc1nc2cc(Cl)c(OC[C@H]3C[C@H](OC[C@H](C)NC(C)=O)C3)nc2s1 [Compound I-212]
21 | 25 nM | C[C@@H](CO[C@H]1C[C@H](COc2ccc3nc(OCC(F)F)sc3n2)C1)NC(N)=O [Compound I-205]
22 | 13 nM | CC(=O)N[C@@H](C)CO[C@H]1CC[C@H](Oc2ncc(-c3ncc(Cl)cn3)cc2F)CC1 [Compound I-526]
23 | 625 nM | CC(=O)N[C@@H](C)CO[C@H]1CC[C@H](Oc2nc3c(C#N)cc(OCC(F)F)cc3n2C)CC1 [Compound I-679]
24 | 73 nM | CCOc1cc2c(nc(O[C@H]3CC[C@H](OC[C@H](C)NC(C)=O)CC3)n2C)c(F)n1 [Compound I-641]
25 | 249 nM | CCOc1nc2ccc(O[C@H]3CC[C@H](OC[C@H](C)NC(C)=O)CC3)cc2n1C [Compound I-506]
26 | 32 nM | CC(=O)N[C@@H](C)CO[C@H]1C[C@H](COc2nccc3c2CCN3CC2CC2)C1 [Compound I-458]
27 | 242 nM | CC(=O)N[C@@H](C)CO[C@H]1C[C@H](COc2ccc3nc(Oc4ccc(F)cn4)sc3n2)C1 [Compound I-304]
28 | 179 nM | CC(=O)N[C@@H](C)CO[C@H]1C[C@H](COc2ncnc(OC3(c4ccccc4)CC3)c2Cl)C1 [Compound I-466]
